Measured values published in US20060167046A1, “Histamine h3 receptor antagonists, preparation and therapeutic uses” (Eli Lilly and Company Patent Division, priority 2002, published 2006).

Biological target: T1, H3R membranes (H3R8-expressing HEK293 cell line) (Homo sapiens, UniProt Q9Y5N1)
T1 construct: expressed in transfected cells
Experiment: [35S]GTPγS binding assay, H3R membranes in the presence of agonist
Format: biochemical
Conditions: inhibition of [35S]GTPγS binding to H3R membranes in presence of agonist R(-)alpha methylhistamine; room temperature, pH 7.4
Description: Membranes isolated as described in (Preparation of Histamine Receptor Subtype Membranes) were used in a [^35S]GTPχS functional assay. Binding of [^35S]GTPχS to membranes indicates agonist activity. Compounds of the invention of Formula I were tested for their ability to inhibit binding in the presence of agonists. Alternately, the same transfected cell lines were used for a cAMP assay wherein H3R agonists inhibited forskolin-activated synthesis of cAMP. Compounds of Formula I were tested for their ability to permit forskolin-stimulated cAMP synthesis in the presence of agonist. cDNA for the human histamine 3 receptor was cloned and expressed as described in (A. Preparation H1R membranes), above. Transfected cells were selected using G418 ([…]), grown, and tested for histamine binding by the SPA described above. For total binding, cells were assayed in a SPA reaction described above containing 50 mM Tris-HCL (assay buffer), pH 7.6, 1 mg wheat germ agglutinin SPA beads (Amersham Pharmacia Biotech, #RPNQ0001), and 1 nM (^3H)-n-alpha-methylhistamine (NEN, NET1027) (total volume per well=200 μl). Thioperimide was added to determine non-specific binding. Several clones were selected as positive for binding, and a single clone (H3R8) was used to prepare membranes for binding studies described above. […] Plates were counted in Wallac Trilux 1450 Microbeta scintillation counter for 1 minute. […]

T1 sequence (Q9Y5N1 whole entry): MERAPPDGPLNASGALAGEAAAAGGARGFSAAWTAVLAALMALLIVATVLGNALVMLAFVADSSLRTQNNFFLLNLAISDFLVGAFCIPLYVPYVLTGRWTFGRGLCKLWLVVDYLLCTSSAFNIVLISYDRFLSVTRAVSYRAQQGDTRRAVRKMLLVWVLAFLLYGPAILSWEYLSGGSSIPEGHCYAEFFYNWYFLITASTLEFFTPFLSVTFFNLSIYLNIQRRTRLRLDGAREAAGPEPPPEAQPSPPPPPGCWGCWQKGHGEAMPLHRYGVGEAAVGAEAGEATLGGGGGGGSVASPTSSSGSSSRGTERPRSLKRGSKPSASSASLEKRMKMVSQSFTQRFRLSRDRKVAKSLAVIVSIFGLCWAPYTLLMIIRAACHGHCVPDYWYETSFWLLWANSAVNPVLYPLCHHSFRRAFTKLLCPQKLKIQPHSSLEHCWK

O=C(c1cccs1)N1CCCc2ccc(OCCCN3CCCCC3)cc21 [Example 6, [7-(3-Piperidin-1-yl-propoxy)-3,4-dihydro-2H-quinolin-1-yl]-thiophen-2-yl-methanone]
Ki: 12.6 nM

CN1CCC[C@H]1CN1CCc2cc(OCCCN3CCCCC3)ccc21 [Example 60, (S)-1-(1-Methyl-pyrrolidin-2-ylmethyl)-5-(3-piperidin-1-yl-propoxy)-2,3-dihydro-1H-indole]
Ki: 0.5 nM
